From article PMC5608556, “Photo-affinity labelling and biochemical analyses identify the target of trypanocidal simplified natural product analogues” (PLoS Neglected Tropical Diseases, 2017) come the findings set out here.

For assay [1], the system named is mitochondrial membrane potential (Δψm) in live PF T. brucei. Briefly: MitoTracker monitoring of mitochondrial membrane potential. It counts as cell-based, Trypanosoma brucei. Conditions: 2 h; for Elevation of mitochondrial membrane potential (Δψm): compounds at 40 μM, MitoTracker Red/Green ratio relative to uninhibited control; for Effect on mitochondrial membrane potential (Δψm): AA and OA 2 μM, DNP 1 mM. From the text:
To determine which mitochondrial complex of oxidative phosphorylation was targeted by B-THP-T compounds, their effects on the mitochondrial membrane potential (Δψm) were monitored in live PF T. brucei (Fig 6A). MitoTracker Red CMXRos, like tetramethylrhodamine and safranine, accumulates in active mitochondria and the degree of accumulation is dependent on the Δψm, however, accumulation of MitoTracker Green FM is independent of the Δψm and the ratio of red/green uptake can therefore be used to determine the Δψm normalised to the number and size of mitochondria present. […] Similarly, compounds 1 and 3 elevated the mitochondrial membrane potential (by 2-3-fold), confirming that they, like OA, reduce oxidative phosphorylation by the inhibition of the FoF1-ATP synthase.
Fig 6 Effects of compounds on mitochondrial membrane potential. PF T. brucei were incubated with inhibitors and MitoTracker Red CMXRos, which is an indicator of the mitochondrial membrane potential (Δψm). (A) MitoTracker-loaded cells were imaged to qualitatively detect differences in the Δψm. […] (B) Fluorescence of MitoTracker-loaded cells were quantified using a microplate reader and normalised to MitoTracker green fluorescence.
2 x 10^6 PF T. brucei cells were incubated in 1 mL GF-SDM-79 growth media supplemented with/without inhibitors for 2 h. B-THP-Ts were used at 40 μM, AA and OA at 2 μM, DNP at 1 mM and SHAM at 100 μM. MitoTracker Red CMXRos and MitoTracker Green FM were added to 100 nM and 1 μM respectively and incubated for a further 10 min. Cells were washed in growth medium and the MitoTracker reagents chased into the mitochondrion for 10 min in fresh growth medium supplemented with inhibitors. Cells were washed again in growth medium to remove unincorporated MitoTracker reagents, pelleted, suspended in 100 μL 4% PFA in PBS, and fixed at RT in the dark for 10 min. Fixed cells were pelleted and suspended in 100 μl PBS. Cells were transferred to poly-lysine-coated slides and mounted with DAPI-containing SlowFade mounting medium (Invitrogen). Fluorescence images were collected with a DeltaVision microscope (as detailed above) to show MitoTracker localisation and comparative intensity.
1 mL of cells at 1 x 10^7 cells/mL were labelled as above. However, instead of fixing cells they were resuspended in 200 μL growth medium and transferred to 96-well plates. Fluorescences were recorded (excitation at 540/35 nm, emission at 590/10 nm for MitoTracker Red CMXRos, and excitation at 485/20 nm, emission at 528/20 nm for MitoTracker Green FM) using a BioTek FLX800 spectrofluorimeter and Gen5 Reader Control 2.0 software, in much the same way as others have recorded previously. Background fluorescence values were subtracted from each and MitoTracker Red fluorescences normalised against their MitoTracker Green FM counterparts. Membrane potentials were then calculated relative to the uninhibited controls.

In assay [2] the test system is ATP production (oxidative phosphorylation) in digitonin-permeabilised PF T. brucei. Briefly: ATP production assay in digitonin-permeabilised cells. It counts as cell-based, Trypanosoma brucei. Conditions: for Effect on ATP production from succinate: succinate 2.5 mM as substrate. An excerpt: We next sought to identify the point at which ATP production was blocked using digitonin-permeabilised cells. Digitonin permeabilises the plasma membrane of trypanosomatids, but crucially, leaves the glycosomes and mitochondria intact and fully functional, allowing them to be probed with compartment-specific ATP-yielding substrates. Digitonin-permeabilised PF T. brucei were probed with succinate, which is readily transported across the PF T. brucei mitochondrial membrane by the dicarboxylic acid carrier and can yield only oxidative phosphorylation-derived ATP through the FoF1-ATP synthase (complex V).
Fig 5 Inhibition of ATP production in digitonin-permeabilsed cells. (A-C) Digitonin-permeabilised PF T. brucei were probed with substrates in the presence of inhibitors and resulting ATP production quantified by bioluminescence assay. See experimental section for details. Inhibitors were used at saturating concentrations to ensure that relevant enzyme activities were ablated. Key: NS, no substrate; NI, no inhibitor; SHAM, salicylhydroxamic acid (TAO inhibitor at 100 μM); Rotenone (complex I inhibitor at 100 μM); Malonate (complex II inhibitor at 5 mM); AA, antimycin A (complex III inhibitor at 200 μM); OA, oligomycin A (complex V inhibitor at 200 μM); DNP, 2,4-dinitrophenol (protonophore at 1 mM); Comp.1, compound 1 at 200 μM. Background relative light units (RLU) were subtracted from measurements and % ATP production normalised to the no inhibitor control. Data were averaged from three independent experiments, each performed in quadruplicate. Error bars show standard deviations. T-tests were performed against no inhibitor controls (black asterisks) and compound 1 (grey open circles) and significance values presented: p < 0.00005 (*** / °°°), p < 0.0005 (** / °°), p < 0.005 (* / °). (A) Succinate was used as a substrate to generate ATP solely through oxidative phosphorylation (OxPhos). Oxidative phosphorylation inhibitors malonate, AA, OA and DNP virtually eliminated all ATP production. […] (B) α-ketoglutarate yields 40% ATP through substrate-level phosphorylation (SubPhos) and 60% through oxidative phosphorylation. Malonate, AA, OA and DNP inhibit oxidative phosphorylation, but not substrate-level phosphorylation. […] (C) Gly-3P acts as an alternative entry site to the electron transport chain yielding ATP through oxidative phosphorylation and the glycosome (GlyPhos). Malonate has no effect, as it acts at a different entry point. AA, OA and DNP inhibit oxidative phosphorylation, but not glycosomal phosphorylation.
ATP production assays were carried out in duplicate, and three independent assays were conducted. Cells were digitonin-permeabilised as previously described. Briefly, cells were washed in PBS and permeabilised for 5 min at a density of 1x10^8 cells/mL in SoTE buffer (20 mM Tris.HCl (pH 7.5), 2 mM EDTA pH 7.5, 600 mM sorbitol) supplemented with 0.015% (w/v) digitonin. Permeabilised cells were pelleted at 5000 g for 3 min at 4°C and suspended to 8.4x10^7 cells/mL in ATP assay buffer (20 mM Tris.HCl (pH 7.4), 15 mM KH2PO4, 0.6 M sorbitol, 10 mM MgSO4, 2.5 mg/mL fatty acid-free BSA.
ATP production assays were carried out in 75 μl volumes in 96-well plates with a final PF T. brucei cell density of 6.7 x 10^7 cells/mL as previously reported. […] B-THP-Ts, antimycin A (AA) and oligomycin A (OA) were used at 200 μM, Dinitrophenol (DNP) at 1 mM, malonate at 5 mM, rotenone at 100 μM and salicylhydroxamic acid (SHAM) at 100 μM. 59.25 μL digitonin-permeabilised cells (prepared above) were added to 0.75 μl inhibitor dissolved in DMSO (or 0.75 μL DMSO without inhibitor for no inhibitor control) and incubated for 10 min to allow inhibitors to take effect. Substrate was added to 2.5 mM and incubated for 10 min. Reactions were started with the addition of ADP to 60 μM and incubated at RT for 30 min. […]

[3] abbreviates: glycerol-3-phosphate as substrate, 30 min, compound 1, AA, OA 200 μM, DNP 1 mM.
Setting [4] is: 30 min, compound 1, AA, OA 200 μM, DNP 1 mM, malonate 5 mM, rotenone, SHAM 100 μM.

Read-outs that look alike come from different tables or passages of the source.

In the case of `CCCCCC[C@H]1CCC[C@@H](Cn2cc([C@@H]3CCC[C@H](CCCCO)O3)nn2)O1` [Compound 1], in assay [1], the “Elevation of mitochondrial membrane potential (Δψm)” value is listed as 2-3 fold. Moreover, the IC50 (as a rule, the concentration that inhibits the measured activity by half) in assay [2] (Trypanosoma brucei, 0.5 h, read-out: IC50 against oxidative phosphorylation (ATP production), Gly-3P as substrate, digitonin-permeabilised PF T. brucei, Gly-3P, 30 min incubation) came to 39.2 ± 4.6 µM; in assay [2] (Trypanosoma brucei, 0.5 h, read-out: IC50 against oxidative phosphorylation (ATP production), succinate as substrate, digitonin-permeabilised PF T. brucei, succinate, 30 min incubation), 57.3 ± 14.5 µM; in assay [2] (read-out: IC50 against oxidative phosphorylation (ATP production), Gly-3P as substrate, digitonin-permeabilised PF T. brucei, Gly-3P, 30 min incubation), 39 ± 5 µM; in assay [2] (read-out: IC50 against oxidative phosphorylation (ATP production), succinate as substrate, digitonin-permeabilised PF T. brucei, succinate, 30 min incubation), 57 ± 15 µM. Also, in assay [2] (setting [3]), the “Inhibition of ATP production from Gly-3P” value is listed as 82 ± 16%. For the same molecule, the “Effect on ATP production from succinate” value in assay [2] (setting [4]) was “decreased ATP production from succinate to similar levels”. Also, in assay [2] (α-ketoglutarate as substrate, 30 min, compound 1, AA, OA 200 μM, DNP 1 mM, malonate 5 mM), the “Inhibition of ATP production from α-ketoglutarate” value stood at 67 ± 13%.

Regarding `C#CCNC(=O)CCC[C@H]1CC2(C[C@@H](Cn3cc([C@@H]4CCC[C@H](CCCCOCc5ccccc5)O4)nn3)O1)N=N2` [Compound 3], the “Elevation of mitochondrial membrane potential (Δψm)” value in assay [1] is given as 2-3 fold.

Take `CCCCCC[C@H]1C(=O)O[C@H](C)[C@H](NC(=O)c2cccc(NC=O)c2O)C(=O)O[C@@H](C)[C@@H]1OC(=O)CC(C)C` [antimycin A]: in assay [1], the “Effect on mitochondrial membrane potential (Δψm)” value is listed as “decrease the Δψm”. The “Inhibition of ATP production from Gly-3P” value in assay [2] (setting [3]) stood at 75 ± 14%. For the same molecule, the “Effect on ATP production from succinate” value in assay [2] (setting [4]) is listed as “almost abolished ATP production”.

Take `O=C(O)CC(=O)O` [malonate]: in assay [1], the “Effect on mitochondrial membrane potential (Δψm)” value is “decrease the Δψm”. Also, the “Effect on ATP production from Gly-3P” value in assay [2] (glycerol-3-phosphate as substrate, 30 min, malonate 5 mM, rotenone, SHAM 100 μM) is reported as “no effect”. The “Effect on ATP production from succinate” value in assay [2] (setting [4]) was “completely eliminated all ATP production”.
